The numbers were not newly measured in US20190364946A1, “POWDERS AND TABLETS COMPRISING OMEGA-3 FATTY ACID DERIVATIVES AND METHODS FOR THEIR PRODUCTION” (OMEGATRI AS, priority 2016, published 2019), which cites them from elsewhere.

The conditions of this series: for HLB value: from commercial and scientific sources; for Surfactants HLB: HLB of added surfactant or surfactant mixture.

For the substance sorbitan stearate, the HLB value is reported as 4.7.
For the substance sorbitan monostearate, the HLB value was 4.7.
In the case of Span 80, the “Surfactants HLB” value is reported as 4.3.
For Span 85, the “Surfactants HLB” value is 1.8.
